Laboratory results from ChEMBL document CHEMBL5523748, “Targeting Myeloperoxidase Ameliorates Gouty Arthritis: A Virtual Screening Success Story” (J Med Chem, 2024).
Blank lines part the entries; values can stand above or below the molecule they belong to. Activity calls are given as the source filed them. The calls are words filed in the database; no cut-off is given here.

Tests used:
[1] = Antioxidant activity assessed as taurine chloramine scavenging activity incubated for 15 mins; type: functional
[2] = biological target: T1, Myeloperoxidase (Homo sapiens) (UniProt P05164); experiment: Inhibition of human leukocyte MPO chlorinating activity using hydrogen peroxide as substrate at 20 uM preincubated for 15 mins followed by substrate addition and measured after 8 mins relative to control; conditions: time 23.0 min
T1 sequence (whole entry): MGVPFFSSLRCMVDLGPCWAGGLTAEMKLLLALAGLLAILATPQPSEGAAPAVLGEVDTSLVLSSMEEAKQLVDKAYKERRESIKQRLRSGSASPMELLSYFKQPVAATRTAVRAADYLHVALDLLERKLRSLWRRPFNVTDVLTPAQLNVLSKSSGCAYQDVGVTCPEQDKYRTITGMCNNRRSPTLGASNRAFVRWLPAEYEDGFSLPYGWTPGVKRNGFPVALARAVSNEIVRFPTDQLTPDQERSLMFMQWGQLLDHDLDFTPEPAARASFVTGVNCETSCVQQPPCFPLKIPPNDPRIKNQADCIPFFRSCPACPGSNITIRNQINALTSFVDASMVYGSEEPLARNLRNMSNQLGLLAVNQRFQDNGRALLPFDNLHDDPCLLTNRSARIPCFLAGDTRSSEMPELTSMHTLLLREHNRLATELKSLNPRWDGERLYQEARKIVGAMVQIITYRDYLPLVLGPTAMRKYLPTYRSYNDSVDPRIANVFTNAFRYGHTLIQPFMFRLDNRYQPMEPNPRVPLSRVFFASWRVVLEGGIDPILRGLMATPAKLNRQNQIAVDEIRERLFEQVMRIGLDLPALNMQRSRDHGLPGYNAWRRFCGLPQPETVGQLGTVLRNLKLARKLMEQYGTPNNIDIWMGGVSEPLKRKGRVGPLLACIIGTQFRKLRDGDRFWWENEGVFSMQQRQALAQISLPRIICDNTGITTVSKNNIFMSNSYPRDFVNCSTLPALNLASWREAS

[3] = biological target: T1, Myeloperoxidase (Homo sapiens); experiment: Inhibition of human leukocyte MPO peroxidase activity using hydrogen peroxide as substrate by fluorescence based analysis
[4] = biological target: T1, Myeloperoxidase (Homo sapiens); experiment: Reversible inhibition of human leukocyte MPO using hydrogen peroxide as substrate assessed as restoration of MPO peroxidase activity at 20 uM incubated for 30 mins and measured after dilution using acetate buffer in presence of TMB
dHL-60 = experiment: Inhibition of HOCl production in human dHL-60 cells at 20 uM incubated for 1 hrs in presence of PMA; type: functional, cell-based
Neutrophil [5] = experiment: Inhibition of HOCl production in human neutrophil at 20 uM incubated for 1 hrs in presence of PMA; type: functional, cell-based
Neutrophil [6] = experiment: Inhibition of MSU-induced NETosis in human neutrophil assessed as reduction in release of large DNA scaffolds at 20 uM incubated for 90 mins by sytox green staining based fluorescence microscopic analysis; type: functional, cell-based
Neutrophil [7] = experiment: Inhibition of MSU-induced NETosis in human neutrophil assessed as reduction in nuclear expansion at 20 uM incubated for 90 mins by sytox green staining based fluorescence microscopic analysis; type: functional, cell-based
[8] = biological target: Poly [ADP-ribose] polymerase 1 (Homo sapiens) (UniProt P09874); experiment: Inhibition of PARP1-induced ADP-ribosylation in human hTERT-RPE1 cells at 1 to 50 uM preincubated with compound for 1 hrs followed by H2O2 addition and measured after 10 mins; type: cell-based; conditions: dose 1-50 µM, time 70.0 min
TERT-RPE1 [9] = experiment: Cytotoxicity against human hTERT-RPE1 cells assessed as reduction in cell viability at 2 to 50 uM measured after 72 hrs by XTT assay; type: toxicity, cell-based; conditions: tert-rpe1, 72 h, dose 2-50 µM
Mus musculus [10] = experiment: Anti-inflammatory activity against MSU-induced gouty arthritis in male C57BL/6 mouse model assessed as prevention of paw edema at 3 to 30 mg/kg, ip preadministered with compound for 30 mins followed by MSU administration and measured for 6 hrs by plethysmometer; type: functional, organism-based; conditions: dose 3-30 mg/kg, time 6.5 hrs
Mus musculus [11] = experiment: Downregulation of IL-6 level in MSU-induced gouty arthritic male C57BL/6 mouse model at 30 mg/kg, ip preadministered with compound for 30 mins followed by MSU addition and measured after 6 hrs by ELISA; type: functional, organism-based; conditions: time 6.5 hrs
[12] = Reactivity of the compound in phosphate buffer at pH 7.4 assessed as compound oxidation by measuring decrease in fluorescence spectra in presence of MPO by fluorescence microplate reader; type: physicochemical
[13] = Reactivity of the compound in phosphate buffer at pH 7.4 assessed as compound oxidation by measuring decrease in fluorescence spectra in presence of H2O2 by fluorescence microplate reader; type: physicochemical
[14] = Reactivity of the compound in phosphate buffer at pH 7.4 assessed as compound oxidation by measuring decrease in fluorescence spectra in presence of MPO and chloride by fluorescence microplate reader; type: physicochemical
[15] = Reactivity of the compound in phosphate buffer at pH 7.4 assessed as compound oxidation by measuring decrease in fluorescence spectra in presence of H2O2 and chloride by fluorescence microplate reader; type: physicochemical
[16] = Reactivity of the compound in phosphate buffer at pH 7.4 assessed as compound oxidation by measuring decrease in fluorescence spectra in presence of MPO, H2O2 and tyrosine by fluorescence microplate reader; type: physicochemical
TERT-RPE1 [17] = experiment: Cytotoxicity against human hTERT-RPE1 cells assessed as reduction in cell viability at 50 uM measured after 72 hrs by XTT assay; type: toxicity, cell-based; conditions: tert-rpe1, 72 h
Mus musculus [18] = experiment: Anti-inflammatory activity against MSU-induced gouty arthritis in male C57BL/6 mouse model assessed as prevention of paw edema at 3 to 30 mg/kg, ip preadministered with compound for 30 mins followed by MSU administration and measured for 1 to 4 hrs by plethysmometer; type: functional, organism-based; conditions: dose 3-30 mg/kg, time lower 1.5 hrs, time upper […]
Mus musculus [19] = experiment: Anti-inflammatory activity against MSU-induced gouty arthritis in male C57BL/6 mouse model assessed as prevention of paw edema at 0.3 mg/kg, ip preadministered with compound for 30 mins followed by MSU administration and measured for 4 hrs by plethysmometer; type: functional, organism-based
Mus musculus [20] = experiment: Downregulation of IL-1beta level in MSU-induced gouty arthritic male C57BL/6 mouse model at 30 mg/kg, ip preadministered with compound for 30 mins followed by MSU addition and measured after 6 hrs by ELISA; type: functional, organism-based; conditions: time 6.5 hrs
Mus musculus [21] = experiment: Reduction in total peroxidase activity in MSU-induced gouty arthritic male C57BL/6 mouse model at 30 mg/kg, ip preadministered with compound for 30 mins followed by MSU addition and measured after 6 hrs; type: functional, organism-based; conditions: time 6.5 hrs
[22] = Reactivity with Hypochlorous acid (HOCl) in phosphate buffer at pH 7.4 assessed as fluorescence decay at 20 uM measured within 1 sec by stopped-flow spectrophotometric analysis; type: physicochemical; conditions: pH 7.4, 1 s
Mus musculus [23] = experiment: Anti-inflammatory activity against MSU-induced gouty arthritis in male C57BL/6 mouse model assessed as prevention of paw edema at 30 mg/kg, ip preadministered with compound for 30 mins followed by MSU administration and measured upto 4 hrs by plethysmometer; type: functional, organism-based
Mus musculus [24] = experiment: Anti-inflammatory activity against MSU-induced gouty arthritis in male C57BL/6 mouse model assessed as prevention of paw edema at 3 to 30 mg/kg, ip preadministered with compound for 30 mins followed by MSU administration and measured upto 4 hrs by plethysmometer; type: functional, organism-based; conditions: dose 3-30 mg/kg
Mus musculus [25] = experiment: Anti-inflammatory activity against MSU-induced gouty arthritis in male C57BL/6 mouse model assessed as inhibition of paw edema at 34 mg/kg, po preadministered with compound for 1 hrs followed by MSU administration and measured for 6 hrs by plethysmometer; type: functional, organism-based; conditions: time 7.0 hrs

Poly [ADP-ribose] polymerase 1 (Homo sapiens), sequence (P09874 whole entry): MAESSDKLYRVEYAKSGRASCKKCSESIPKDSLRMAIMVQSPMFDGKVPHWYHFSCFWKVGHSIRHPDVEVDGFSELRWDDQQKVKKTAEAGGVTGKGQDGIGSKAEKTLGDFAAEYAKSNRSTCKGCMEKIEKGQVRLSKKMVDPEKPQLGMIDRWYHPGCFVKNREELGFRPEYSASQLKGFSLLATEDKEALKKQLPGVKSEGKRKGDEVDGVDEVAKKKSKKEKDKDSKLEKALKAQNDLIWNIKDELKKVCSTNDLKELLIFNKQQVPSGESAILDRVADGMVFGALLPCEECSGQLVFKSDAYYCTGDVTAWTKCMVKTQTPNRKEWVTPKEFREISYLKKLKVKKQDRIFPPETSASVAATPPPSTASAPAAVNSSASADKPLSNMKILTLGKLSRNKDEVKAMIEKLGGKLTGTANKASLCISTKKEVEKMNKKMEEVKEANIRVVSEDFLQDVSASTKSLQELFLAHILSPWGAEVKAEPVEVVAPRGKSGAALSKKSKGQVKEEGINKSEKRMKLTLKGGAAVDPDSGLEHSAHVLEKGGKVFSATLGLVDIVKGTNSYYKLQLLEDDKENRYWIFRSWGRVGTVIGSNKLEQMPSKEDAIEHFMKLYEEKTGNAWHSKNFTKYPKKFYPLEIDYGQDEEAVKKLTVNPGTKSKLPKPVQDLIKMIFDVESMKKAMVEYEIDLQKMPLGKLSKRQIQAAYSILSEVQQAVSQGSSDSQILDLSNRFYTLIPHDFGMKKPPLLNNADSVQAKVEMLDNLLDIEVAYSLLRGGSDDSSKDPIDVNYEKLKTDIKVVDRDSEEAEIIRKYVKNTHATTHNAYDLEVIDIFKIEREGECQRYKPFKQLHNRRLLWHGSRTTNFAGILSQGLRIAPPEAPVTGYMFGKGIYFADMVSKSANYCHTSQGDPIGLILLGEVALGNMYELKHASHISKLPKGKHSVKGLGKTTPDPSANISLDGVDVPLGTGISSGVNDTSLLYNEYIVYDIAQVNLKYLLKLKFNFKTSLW

Structure (SMILES): CCCOc1ccc(C2C(C#N)=C(N)SC(N)=C2C#N)cc1OC
Activity [1]: Active

Structure (SMILES): Cc1cccc(Nc2ccccc2C(=O)O)c1C
Activity (Mus musculus [23]): Active | Activity (Mus musculus [11]): inactive | Activity (Mus musculus [20]): inactive | Activity (Mus musculus [21]): inactive

Structure (SMILES): N#CC1=C(N)Oc2c(c(=O)sc3ccccc23)C1c1ccc(F)cc1 (centres undefined)
inhibition [2]: inactive

Structure (SMILES): CN(C)CCc1c(C#N)c(=O)ncn1Cc1ccccc1
inhibition [2]: inactive | inhibition [3]: inactive

Structure (SMILES): CCc1c(O)[nH]c2nc3ccccc3n2c1=O
Activity (Mus musculus [24]): Active | Activity (Mus musculus [25]): inactive | Activity (Mus musculus [11]): inactive | Activity (Mus musculus [20]): inactive | Activity (Mus musculus [21]): inactive

Structure (SMILES): COc1cc(/C=N/NC(=O)c2ccoc2C)ccc1OCCN1CCCCC1
inhibition [2]: inactive

Structure (SMILES): CCCc1cc(=O)[nH]c(=S)[nH]1
inhibition (dHL-60): Active | inhibition (Neutrophil [5]): Active | inhibition (Neutrophil [6]): Active | inhibition (Neutrophil [7]): Active

Further lines, with some results ahead:

inhibition [2]: inactive | inhibition [3]: inactive
Structure (SMILES): O=c1c2cnc3cc(C(F)(F)F)ccc3c2sc2nncn12

inhibition [4]: Active | inhibition [8]: inactive | Drug metabolism [12]: Metabolite_Notdetected | Drug metabolism [13]: Metabolite_Notdetected | Drug metabolism [14]: Metabolite_Notdetected | Drug metabolism [15]: Metabolite_Notdetected | Drug metabolism [16]: Metabolite_Notdetected
Structure (SMILES): Nc1cc2c3c(cccc3c1)C(=O)N(N)C2=O
Activity [1]: inactive | inhibition (dHL-60): Active | inhibition (Neutrophil [5]): Active | inhibition (Neutrophil [6]): Active | inhibition (Neutrophil [7]): Active | Activity (TERT-RPE1 [9]): Non-Toxic | Activity (Mus musculus [10]): Active | Activity (Mus musculus [11]): inactive

inhibition [3]: inactive
Structure (SMILES): COc1ccc(C(=O)Nc2ccc(-c3nnc(S)o3)cc2)cc1
Activity [1]: Active | inhibition (dHL-60): inactive | inhibition (Neutrophil [5]): inactive

inhibition [3]: inactive | Drug metabolism [12]: Metabolite_Notdetected | Drug metabolism [13]: Metabolite_Notdetected | Drug metabolism [14]: Metabolite_Detected | Drug metabolism [15]: Metabolite_Detected | Drug metabolism [22]: Metabolite_Detected
Structure (SMILES): CN1CCc2nc3sc(C(=O)Nc4cccc(C#N)c4)c(N)c3cc2C1
Activity [1]: inactive | inhibition (dHL-60): Active | inhibition (Neutrophil [5]): Active | inhibition (Neutrophil [6]): Active | inhibition (Neutrophil [7]): Active | Activity (TERT-RPE1 [17]): Toxic | Activity (Mus musculus [18]): Active | Activity (Mus musculus [19]): Active | Activity (Mus musculus [11]): inactive | Activity (Mus musculus [20]): inactive | Activity (Mus musculus [21]): inactive

inhibition [2]: inactive | inhibition [3]: inactive
Structure (SMILES): CCCNc1ncnc2cc(-c3ccc(OC)cc3)sc12

inhibition [2]: inactive
Structure (SMILES): CCOC(=O)C(Cc1ccc(O)cc1)NC1=CC(=O)C(=O)c2ccccc21 (centres undefined)
